Tests used:
Assay type in all cases: cell-based
Details in all cases: 48 h
p53 = assay: Western blot of p53 level in breast cancer cells
Method: For Western blotting, cells were lysed in NP-40 lysis buffer (1% NP-40, 50 mM Tris-HCl, pH 8.0, 150 mM NaCl, 5 mM EDTA) or 1× passive lysis buffer (Promega, Germany) for 15 min on ice. Cell debris was removed by centrifugation at 13,000 rpm for 10 min and used for SDS-polyacrylamide gel electrophoresis (PAGE) and Western blotting.
Western Blotting was carried out using standard protocols with antibodies: p53 (clone DO1), p53 (Sp5, Thermo Fisher Scientific Karlsruhe, Germany), Mdm2 (4B2, Abcam, Cambridge, UK). […] Secondary goat anti-mouse and goat anti-rabbit antibodies were purchased from DAKO (Bollschweil, Germany).

LNCaP and LAPC-4 cells = assay: Apoptosis by automated high-throughput microscopy (Hoechst / propidium iodide)
Method: Apoptosis in LNCaP and LAPC-4 cells was measured using an automated high-throughput microscopy method known in the art. In brief, LNCaP and LAPC4 cells (5×10^3) were seeded in a 96-well plate format. Cells were treated with 10^-9 - 10^-6 M X15695, DMSO or etoposide (250 µM) for 48h. Cells were stained with Hoechst 33342 (0,15 µg/ml) and propidium iodide (PI) (0,25 µg/ml) for 30 min at 37°C. Four brightfield and fluorescence images were acquired from different positions in each well using an automated Olympus IX81 fluorescence microscope (Olympus, Hamburg, Germany). The Hoechst dye was detected at excitation 350 nm and emission 450 nm and PI dye was detected at 488 nm and 590 nm. The total number of cells (all Hoechst-stained nuclei) as well as the number of early apoptotic, late apoptotic, and necrotic cells (combination of Hoechst and PI nuclei intensity) was obtained by analyzing images with the scan^R software (version 2.7.3, Olympus, Hamburg, Germany).

[1] = tested on: TRMCF-7 cells (tamoxifen resistant MCF-7 cells); assay: MTT cell viability assay
Method: […] Cells transfected with siRNA were incubated for 72 h after X15695 addition. Thereafter, the medium was exchanged for a fresh medium containing 0.5 mg/ml MTT (Sigma-Aldrich) and incubated at 37°C for 1 h to 4 h (depending on cell line) until intracellular purple formazan crystals were formed. The MTT solution was removed, and the purple crystals were dissolved in isopropanol and the optical absorbance at 595 nm was recorded using SpectraMax iD3, Molecular Devices, San Jose, CA, USA.

Fc1ccc(-c2cn3cc(C(F)(F)F)cc(Cl)c3n2)cc1 [Compound X15695, 8-Chloro-2-(4-fluorophenyl)-6-(trifluoromethyl)imidazo[1,2-a]pyridine]
p53 level (p53; MCF-7 cells (wild-type p53)): significantly increased
p53 level (p53; T47D cells (mutated p53 L194F)): not in T47D cells
apoptosis (LNCaP and LAPC-4 cells): No apoptotic effect
inhibition of viability [1]: comparable activities

Reference: EP4417202A1, “ANTI-CANCER ACTION OF BAG1-SELECTIVE IMIDAZOPYRIDINE COMPOUNDS IN STEROID HORMONE RECEPTOR-POSITIVE BREAST AND PROSTATE CANCER” (Karlsruher Institut für Technologie, priority 2023, dated 2024)
